The record followed here is the kinase profiling compilation of Christmann-Franck et al. (2016).

As a reminder, the residual activity is the signal under treatment as a percentage of the control signal.

Chain of AKT3 (human) (Q9Y243 whole entry, looked up): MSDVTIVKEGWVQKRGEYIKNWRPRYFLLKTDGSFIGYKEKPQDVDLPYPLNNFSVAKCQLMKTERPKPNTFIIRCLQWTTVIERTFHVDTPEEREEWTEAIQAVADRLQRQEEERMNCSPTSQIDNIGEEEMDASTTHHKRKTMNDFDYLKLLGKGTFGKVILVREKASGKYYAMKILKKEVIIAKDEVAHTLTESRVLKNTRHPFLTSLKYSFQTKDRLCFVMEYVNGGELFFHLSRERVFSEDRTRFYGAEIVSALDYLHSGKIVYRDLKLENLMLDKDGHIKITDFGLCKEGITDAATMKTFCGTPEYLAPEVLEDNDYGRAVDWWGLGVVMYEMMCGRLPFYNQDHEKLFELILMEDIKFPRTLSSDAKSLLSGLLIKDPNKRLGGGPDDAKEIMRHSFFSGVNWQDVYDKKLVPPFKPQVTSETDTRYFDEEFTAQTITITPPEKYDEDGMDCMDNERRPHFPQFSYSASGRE
Chain of SGK3 (human) (Q96BR1 whole entry, looked up): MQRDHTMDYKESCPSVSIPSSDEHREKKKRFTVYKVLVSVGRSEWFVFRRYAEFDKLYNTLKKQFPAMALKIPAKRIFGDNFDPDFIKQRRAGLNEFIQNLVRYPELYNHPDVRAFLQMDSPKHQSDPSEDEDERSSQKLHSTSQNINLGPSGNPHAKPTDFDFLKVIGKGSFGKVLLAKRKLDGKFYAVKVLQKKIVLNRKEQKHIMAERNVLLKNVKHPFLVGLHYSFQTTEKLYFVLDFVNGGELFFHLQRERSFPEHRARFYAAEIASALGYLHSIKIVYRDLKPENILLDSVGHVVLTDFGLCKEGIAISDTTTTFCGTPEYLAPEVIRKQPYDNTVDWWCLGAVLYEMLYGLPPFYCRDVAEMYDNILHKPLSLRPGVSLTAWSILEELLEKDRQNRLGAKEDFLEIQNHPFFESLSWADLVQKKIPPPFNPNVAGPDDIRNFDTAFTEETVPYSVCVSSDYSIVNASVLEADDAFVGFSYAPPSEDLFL
Chain of VRK1 (human) (Q99986 whole entry, looked up): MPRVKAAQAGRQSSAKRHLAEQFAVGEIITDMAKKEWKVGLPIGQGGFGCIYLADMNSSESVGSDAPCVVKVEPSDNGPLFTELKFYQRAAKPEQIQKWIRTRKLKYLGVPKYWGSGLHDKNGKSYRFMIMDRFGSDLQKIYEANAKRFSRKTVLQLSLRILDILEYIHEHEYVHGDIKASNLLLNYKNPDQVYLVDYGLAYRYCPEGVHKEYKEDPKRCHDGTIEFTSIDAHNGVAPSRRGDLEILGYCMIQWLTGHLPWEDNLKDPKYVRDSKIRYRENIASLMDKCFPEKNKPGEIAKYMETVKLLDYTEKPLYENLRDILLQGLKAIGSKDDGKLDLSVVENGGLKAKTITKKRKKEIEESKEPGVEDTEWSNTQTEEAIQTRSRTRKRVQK

In one assay the target is PRKD3 (human) (UniProt O94806). In words: radiometric filter-binding kinase assay, Kinase HotSpot. Particulars: compound 0.5 µM; ATP 10 µM.
Regarding `N#CC(C#N)=C(N)/C(C#N)=C/c1ccc(O)cc1`, the residual activity is 91.9%.

As to `COc1cc2ncnc(Nc3cccc(Cl)c3)c2cc1OC`, the residual activity came out at 86.5%.

Take `O=C1NC(=O)c2c1c1c3ccccc3n3c1c1c2c2ccccc2n1C1CCC3O1`: the residual activity was -0.0451%.

The target in another assay is TAOK1 (human) (UniProt Q7L7X3). The description is as above. The note with it: compound 0.5 µM; ATP 10 µM.
Chain of TAOK1 (human) (Q7L7X3 whole entry, looked up): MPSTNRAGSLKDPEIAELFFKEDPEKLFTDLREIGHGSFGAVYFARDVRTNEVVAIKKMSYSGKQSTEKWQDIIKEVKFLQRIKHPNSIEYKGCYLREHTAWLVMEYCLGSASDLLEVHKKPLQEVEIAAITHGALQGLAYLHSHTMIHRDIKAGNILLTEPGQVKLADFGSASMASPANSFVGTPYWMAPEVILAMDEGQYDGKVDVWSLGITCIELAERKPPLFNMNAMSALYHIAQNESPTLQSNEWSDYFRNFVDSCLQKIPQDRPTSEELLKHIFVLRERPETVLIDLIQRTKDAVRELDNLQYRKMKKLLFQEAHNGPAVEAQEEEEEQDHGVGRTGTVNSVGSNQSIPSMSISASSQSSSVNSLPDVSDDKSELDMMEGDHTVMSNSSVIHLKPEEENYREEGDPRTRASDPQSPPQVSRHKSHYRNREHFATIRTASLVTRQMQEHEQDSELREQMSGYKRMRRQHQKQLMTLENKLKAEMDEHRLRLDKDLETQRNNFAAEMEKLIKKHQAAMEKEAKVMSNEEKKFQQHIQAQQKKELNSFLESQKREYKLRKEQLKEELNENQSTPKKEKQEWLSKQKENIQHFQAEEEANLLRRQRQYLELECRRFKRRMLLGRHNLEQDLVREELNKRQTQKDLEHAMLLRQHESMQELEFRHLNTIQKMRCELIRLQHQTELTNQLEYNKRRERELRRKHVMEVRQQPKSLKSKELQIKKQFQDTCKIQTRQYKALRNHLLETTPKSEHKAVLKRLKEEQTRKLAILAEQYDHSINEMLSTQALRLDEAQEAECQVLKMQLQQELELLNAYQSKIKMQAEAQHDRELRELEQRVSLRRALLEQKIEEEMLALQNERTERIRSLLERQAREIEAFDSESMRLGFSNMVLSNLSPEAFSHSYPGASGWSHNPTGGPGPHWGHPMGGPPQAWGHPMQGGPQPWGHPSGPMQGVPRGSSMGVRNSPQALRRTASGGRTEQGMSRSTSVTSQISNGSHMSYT
As for `N#CC(C#N)=C(N)/C(C#N)=C/c1ccc(O)cc1`, the residual activity came to 93.2%.

With `COc1cc2ncnc(Nc3cccc(Cl)c3)c2cc1OC`, the residual activity was 108%.

For `O=C1NC(=O)c2c1c1c3ccccc3n3c1c1c2c2ccccc2n1C1CCC3O1`, the residual activity came to 66.9%.

The next assay addresses PRKCA (human) (UniProt P17252). The description is as above. Particulars: compound 0.5 µM; ATP 10 µM.
In the case of `N#CC(C#N)=C(N)/C(C#N)=C/c1ccc(O)cc1`, the residual activity is 97.4%.

Regarding `COc1cc2ncnc(Nc3cccc(Cl)c3)c2cc1OC`, the residual activity was 111%.

`O=C1NC(=O)c2c1c1c3ccccc3n3c1c1c2c2ccccc2n1C1CCC3O1`: the residual activity was 13.9%.

The next assay has as its target CDK4 CCND1 (human) (UniProt P24385+P11802). The description is as above. Particulars: compound 0.5 µM; ATP 10 µM.
Take `N#CC(C#N)=C(N)/C(C#N)=C/c1ccc(O)cc1`: the residual activity turned out to be 100%.

Consider `COc1cc2ncnc(Nc3cccc(Cl)c3)c2cc1OC`, for which the residual activity worked out at 103%.

As for `O=C1NC(=O)c2c1c1c3ccccc3n3c1c1c2c2ccccc2n1C1CCC3O1`, the residual activity was found to be 11.2%.

A further assay has as its target AKT3 (human) (UniProt Q9Y243). The description is as above. The note with it: compound 0.5 µM; ATP 10 µM.
As for `N#CC(C#N)=C(N)/C(C#N)=C/c1ccc(O)cc1`, the residual activity came to 95.8%.

For `COc1cc2ncnc(Nc3cccc(Cl)c3)c2cc1OC`, the residual activity amounted to 98.3%.

As for `O=C1NC(=O)c2c1c1c3ccccc3n3c1c1c2c2ccccc2n1C1CCC3O1`, the residual activity was 27.1%.

In a further assay the target is CAMK2D (human) (UniProt Q13557). The description is as above. Particulars: compound 0.5 µM; ATP 10 µM.
As for `N#CC(C#N)=C(N)/C(C#N)=C/c1ccc(O)cc1`, the residual activity was determined as 91.1%.

On to `COc1cc2ncnc(Nc3cccc(Cl)c3)c2cc1OC`, for which the residual activity was 96.1%.

As for `O=C1NC(=O)c2c1c1c3ccccc3n3c1c1c2c2ccccc2n1C1CCC3O1`, the residual activity is 7.03%.

The target of another assay is CDK2 CCNE1 (human) (UniProt P24941+P24864). The assay is described as above. The note with it: compound 0.5 µM; ATP 10 µM.
Regarding `N#CC(C#N)=C(N)/C(C#N)=C/c1ccc(O)cc1`, the residual activity was determined as 97%.

`COc1cc2ncnc(Nc3cccc(Cl)c3)c2cc1OC`: the residual activity was 90.4%.

On to `O=C1NC(=O)c2c1c1c3ccccc3n3c1c1c2c2ccccc2n1C1CCC3O1`, for which the residual activity turned out to be 28.5%.

Another assay deals with ITK (human) (UniProt Q08881). The assay is described as above. The note with it: compound 0.5 µM; ATP 10 µM.
Chain of ITK (human) (Q08881 whole entry, looked up): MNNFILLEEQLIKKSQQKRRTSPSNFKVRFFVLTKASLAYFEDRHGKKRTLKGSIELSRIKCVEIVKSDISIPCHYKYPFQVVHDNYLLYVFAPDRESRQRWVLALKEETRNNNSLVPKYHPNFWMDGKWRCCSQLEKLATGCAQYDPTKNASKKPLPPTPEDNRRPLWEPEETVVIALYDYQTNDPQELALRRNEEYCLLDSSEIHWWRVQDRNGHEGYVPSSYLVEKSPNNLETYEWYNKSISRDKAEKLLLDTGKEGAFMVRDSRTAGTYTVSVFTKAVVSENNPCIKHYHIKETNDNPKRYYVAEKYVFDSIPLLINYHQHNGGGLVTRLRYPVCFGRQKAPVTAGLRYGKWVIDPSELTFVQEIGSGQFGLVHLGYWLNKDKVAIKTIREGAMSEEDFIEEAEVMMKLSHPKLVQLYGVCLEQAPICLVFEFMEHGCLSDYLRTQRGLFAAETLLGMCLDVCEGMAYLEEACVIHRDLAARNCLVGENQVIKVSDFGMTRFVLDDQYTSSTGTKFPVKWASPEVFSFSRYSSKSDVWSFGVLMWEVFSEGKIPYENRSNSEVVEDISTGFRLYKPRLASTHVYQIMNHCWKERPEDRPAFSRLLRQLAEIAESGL
For `N#CC(C#N)=C(N)/C(C#N)=C/c1ccc(O)cc1`, the residual activity came to 98.7%.

For the compound `COc1cc2ncnc(Nc3cccc(Cl)c3)c2cc1OC`, the residual activity came to 93.8%.

`O=C1NC(=O)c2c1c1c3ccccc3n3c1c1c2c2ccccc2n1C1CCC3O1`: the residual activity was determined as 8.29%.

The target of a further assay is STK24 (human) (UniProt Q9Y6E0). The description is as above. Particulars: compound 0.5 µM; ATP 10 µM.
Chain of STK24 (human) (Q9Y6E0 whole entry, looked up): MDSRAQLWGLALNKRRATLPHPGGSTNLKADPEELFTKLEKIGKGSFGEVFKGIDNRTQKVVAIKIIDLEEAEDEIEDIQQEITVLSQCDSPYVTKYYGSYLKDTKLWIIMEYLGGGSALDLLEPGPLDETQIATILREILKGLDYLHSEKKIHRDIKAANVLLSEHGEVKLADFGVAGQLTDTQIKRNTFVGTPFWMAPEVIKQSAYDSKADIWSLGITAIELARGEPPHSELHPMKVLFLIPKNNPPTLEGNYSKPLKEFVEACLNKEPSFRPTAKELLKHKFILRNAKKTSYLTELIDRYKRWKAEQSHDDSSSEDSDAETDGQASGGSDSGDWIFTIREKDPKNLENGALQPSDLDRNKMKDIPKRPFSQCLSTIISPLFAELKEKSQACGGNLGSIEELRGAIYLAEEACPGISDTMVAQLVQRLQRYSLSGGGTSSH
Turning to `N#CC(C#N)=C(N)/C(C#N)=C/c1ccc(O)cc1`, the residual activity turned out to be 103%.

Consider `COc1cc2ncnc(Nc3cccc(Cl)c3)c2cc1OC`, for which the residual activity worked out at 96.8%.

Consider `O=C1NC(=O)c2c1c1c3ccccc3n3c1c1c2c2ccccc2n1C1CCC3O1`, for which the residual activity was determined as 14.3%.

In the next assay the target is CDK4 CCND3 (human) (UniProt P30281+P11802). The assay is described as above. Particulars: compound 0.5 µM; ATP 10 µM.
Turning to `N#CC(C#N)=C(N)/C(C#N)=C/c1ccc(O)cc1`, the residual activity was determined as 97.1%.

As for `COc1cc2ncnc(Nc3cccc(Cl)c3)c2cc1OC`, the residual activity is 103%.

Consider `O=C1NC(=O)c2c1c1c3ccccc3n3c1c1c2c2ccccc2n1C1CCC3O1`, for which the residual activity turned out to be 22.2%.

A further assay addresses JAK3 JH1 JH2 (human) (UniProt P52333). The description is as above. Particulars: compound 0.5 µM; ATP 10 µM.
With `N#CC(C#N)=C(N)/C(C#N)=C/c1ccc(O)cc1`, the residual activity was found to be 102%.

In the case of `COc1cc2ncnc(Nc3cccc(Cl)c3)c2cc1OC`, the residual activity turned out to be 91.6%.

Regarding `O=C1NC(=O)c2c1c1c3ccccc3n3c1c1c2c2ccccc2n1C1CCC3O1`, the residual activity is 1.87%.

A further assay deals with CHEK1 (human) (UniProt O14757). The description is as above. Particulars: compound 0.5 µM; ATP 10 µM.
Chain of CHEK1 (human) (O14757 whole entry, looked up): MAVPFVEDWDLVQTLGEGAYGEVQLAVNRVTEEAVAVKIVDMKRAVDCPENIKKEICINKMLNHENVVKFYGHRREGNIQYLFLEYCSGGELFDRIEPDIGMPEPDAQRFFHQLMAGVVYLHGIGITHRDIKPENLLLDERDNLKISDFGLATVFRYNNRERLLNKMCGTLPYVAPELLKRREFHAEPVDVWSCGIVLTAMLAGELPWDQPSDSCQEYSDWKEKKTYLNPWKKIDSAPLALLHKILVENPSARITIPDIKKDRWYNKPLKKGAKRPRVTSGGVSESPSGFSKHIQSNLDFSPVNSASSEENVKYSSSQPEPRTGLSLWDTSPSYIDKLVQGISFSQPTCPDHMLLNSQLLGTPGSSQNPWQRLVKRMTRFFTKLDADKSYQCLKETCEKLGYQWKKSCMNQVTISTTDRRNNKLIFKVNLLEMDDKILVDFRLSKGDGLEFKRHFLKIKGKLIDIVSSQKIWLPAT
In the case of `N#CC(C#N)=C(N)/C(C#N)=C/c1ccc(O)cc1`, the residual activity amounted to 98.3%.

Regarding `COc1cc2ncnc(Nc3cccc(Cl)c3)c2cc1OC`, the residual activity was 93.7%.

For the compound `O=C1NC(=O)c2c1c1c3ccccc3n3c1c1c2c2ccccc2n1C1CCC3O1`, the residual activity came to 3.63%.

In another assay the target is DAPK2 (human) (UniProt Q9UIK4). The assay is described as above. Particulars: compound 0.5 µM; ATP 10 µM.
Chain of DAPK2 (human) (Q9UIK4 whole entry, looked up): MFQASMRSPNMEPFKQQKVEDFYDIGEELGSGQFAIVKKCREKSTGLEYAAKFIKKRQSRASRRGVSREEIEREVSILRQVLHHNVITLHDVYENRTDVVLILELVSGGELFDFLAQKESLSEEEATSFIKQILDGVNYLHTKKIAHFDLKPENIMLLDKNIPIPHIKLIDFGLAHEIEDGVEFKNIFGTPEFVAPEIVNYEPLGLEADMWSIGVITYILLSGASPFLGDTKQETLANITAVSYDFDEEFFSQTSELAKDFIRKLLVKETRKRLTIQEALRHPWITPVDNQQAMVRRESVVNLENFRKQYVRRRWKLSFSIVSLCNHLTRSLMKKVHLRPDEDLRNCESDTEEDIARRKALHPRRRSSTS
With `N#CC(C#N)=C(N)/C(C#N)=C/c1ccc(O)cc1`, the residual activity turned out to be 95.7%.

With `COc1cc2ncnc(Nc3cccc(Cl)c3)c2cc1OC`, the residual activity turned out to be 93.3%.

As for `O=C1NC(=O)c2c1c1c3ccccc3n3c1c1c2c2ccccc2n1C1CCC3O1`, the residual activity was found to be 39.4%.

A further assay addresses CAMK2A (human) (UniProt Q9UQM7). The assay is described as above. The note with it: compound 0.5 µM; ATP 10 µM.
With `N#CC(C#N)=C(N)/C(C#N)=C/c1ccc(O)cc1`, the residual activity amounted to 103%.

As to `COc1cc2ncnc(Nc3cccc(Cl)c3)c2cc1OC`, the residual activity amounted to 98.2%.

With `O=C1NC(=O)c2c1c1c3ccccc3n3c1c1c2c2ccccc2n1C1CCC3O1`, the residual activity turned out to be 2.84%.

The next assay has as its target TGFBR2 (human) (UniProt P37173). The assay is described as above. Particulars: compound 0.5 µM; ATP 10 µM.
As to `N#CC(C#N)=C(N)/C(C#N)=C/c1ccc(O)cc1`, the residual activity was 113%.

As to `COc1cc2ncnc(Nc3cccc(Cl)c3)c2cc1OC`, the residual activity stood at 94.5%.

For the compound `O=C1NC(=O)c2c1c1c3ccccc3n3c1c1c2c2ccccc2n1C1CCC3O1`, the residual activity amounted to 70.3%.

The next assay addresses PRKACA (human) (UniProt P17612). The description is as above. The note with it: compound 0.5 µM; ATP 10 µM.
Consider `N#CC(C#N)=C(N)/C(C#N)=C/c1ccc(O)cc1`, for which the residual activity worked out at 100%.

Take `COc1cc2ncnc(Nc3cccc(Cl)c3)c2cc1OC`: the residual activity amounted to 98.6%.

Consider `O=C1NC(=O)c2c1c1c3ccccc3n3c1c1c2c2ccccc2n1C1CCC3O1`, for which the residual activity came to 44.7%.

The next assay addresses EPHB3 (human) (UniProt P54753). Described as above. The note with it: compound 0.5 µM; ATP 10 µM.
Regarding `N#CC(C#N)=C(N)/C(C#N)=C/c1ccc(O)cc1`, the residual activity turned out to be 99.5%.

As for `COc1cc2ncnc(Nc3cccc(Cl)c3)c2cc1OC`, the residual activity is 99.1%.

As for `O=C1NC(=O)c2c1c1c3ccccc3n3c1c1c2c2ccccc2n1C1CCC3O1`, the residual activity amounted to 93.2%.

Another assay concerns the target SGK3 (human) (UniProt Q96BR1). The description is as above. Particulars: compound 0.5 µM; ATP 10 µM.
As to `N#CC(C#N)=C(N)/C(C#N)=C/c1ccc(O)cc1`, the residual activity turned out to be 103%.

For the compound `COc1cc2ncnc(Nc3cccc(Cl)c3)c2cc1OC`, the residual activity worked out at 90.9%.

As for `O=C1NC(=O)c2c1c1c3ccccc3n3c1c1c2c2ccccc2n1C1CCC3O1`, the residual activity worked out at 71.7%.

In the next assay the target is DAPK3 (human) (UniProt O43293). The description is as above. Particulars: compound 0.5 µM; ATP 10 µM.
On to `N#CC(C#N)=C(N)/C(C#N)=C/c1ccc(O)cc1`, for which the residual activity amounted to 91.1%.

Turning to `COc1cc2ncnc(Nc3cccc(Cl)c3)c2cc1OC`, the residual activity is 94.6%.

`O=C1NC(=O)c2c1c1c3ccccc3n3c1c1c2c2ccccc2n1C1CCC3O1`: the residual activity came out at 24.6%.

The next assay addresses VRK1 (human) (UniProt Q99986). The description is as above. The note with it: compound 0.5 µM; ATP 10 µM.
For the compound `N#CC(C#N)=C(N)/C(C#N)=C/c1ccc(O)cc1`, the residual activity is 103%.

As to `COc1cc2ncnc(Nc3cccc(Cl)c3)c2cc1OC`, the residual activity came to 105%.

For `O=C1NC(=O)c2c1c1c3ccccc3n3c1c1c2c2ccccc2n1C1CCC3O1`, the residual activity stood at 90.2%.

For another assay, the target named is PNCK (human) (UniProt Q6P2M8). The description is as above. The note with it: compound 0.5 µM; ATP 10 µM.
Chain of PNCK (human) (Q6P2M8 whole entry, looked up): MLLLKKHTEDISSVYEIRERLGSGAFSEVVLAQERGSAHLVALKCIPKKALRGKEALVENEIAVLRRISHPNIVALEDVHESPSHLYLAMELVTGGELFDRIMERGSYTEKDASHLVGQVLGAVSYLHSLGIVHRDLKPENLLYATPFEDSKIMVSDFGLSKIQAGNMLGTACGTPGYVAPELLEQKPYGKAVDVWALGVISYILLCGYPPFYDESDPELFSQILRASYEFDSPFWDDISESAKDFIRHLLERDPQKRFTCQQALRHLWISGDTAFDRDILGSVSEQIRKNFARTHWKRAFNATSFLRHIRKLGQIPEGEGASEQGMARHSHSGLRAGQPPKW
For the compound `N#CC(C#N)=C(N)/C(C#N)=C/c1ccc(O)cc1`, the residual activity came out at 97.3%.

As for `COc1cc2ncnc(Nc3cccc(Cl)c3)c2cc1OC`, the residual activity was 89.6%.

Consider `O=C1NC(=O)c2c1c1c3ccccc3n3c1c1c2c2ccccc2n1C1CCC3O1`, for which the residual activity came to 50.5%.
